Laboratory results: patent US6465440B2, “Antimutagenic compositions for treatment and prevention of photodamage to skin” (Wellstat Therapeutics Corporation, priority 1997, dated 2002)

How the values were obtained:
human fibroblasts [1] = test: Individual versus combined deoxyribonucleosides on photodynamically enhanced UV-induced DNA strand breaks; format: cell-based; conditions: UV with 2 μM oxybenzone; individual compounds 20 μM, combination 20 μM each; UV + vehicle .325
Experimental: Confluent human fibroblasts were exposed to 2 micromolar oxybenzone (OB), as in Example 3, prior to exposure to UV-B radiation (50 J/m^2). Different flasks of cells also were exposed to increasing concentrations of deoxyribonucleosides. Cells were processed for determination of nucleoid position in a sucrose density gradient, a measure of DNA single strand breaks. […] Individual deoxyribonucleosides were tested at concentrations of 20 μM, and the combination of all four deoxyribonucleosides contained thymidine, deoxycytidine. deoxyadenosine and deoxyguanosine at 20 μM each.

v-Ha-ras TG.AC mice = test: Individual deoxyribonucleosides versus combination on UV-induced tumorigenesis in v-Ha-ras TG.AC mice; format: in vivo, mouse; conditions: UV 1.25 kJ/m^2 on days 0, 6, 8 and 11; 4 mg/ml (each) in propylene glycol beginning 30 minutes after irradiation; vehicle 1.8
Experimental: Thirty v-Ha-ras TG.AC mice aged twelve weeks were shaved and subjected to ultraviolet radiation, 1.25 kJ/m^2 on days 0, 6, 8 and 11, at a dose rate of 12.5 W/m2. Mice were divided into groups of five animals each and treated, beginning 30 minutes after irradiation, with: 1. Vehicle (propylene glycol) 2.

Human melanocytes = test: Nitric oxide-induced DNA strand breaks with or without UV (pulsed field gel electrophoresis); format: cell-based
Experimental: Human melanocytes were exposed to 160 μM DETA NONOate (Alexis Corporation, Cat #430-014-M005), a reagent which spontaneously produces nitric oxide when exposed to water. Cells were exposed to NO alone, or NO plus increasing doses of UV radiation (50 and 300 J/m^2). Groups of cells were also exposed to deoxyribonucleosides of the invention before, or before and after, exposure to NO or NO+UV radiation; control groups were treated identically except for addition of deoxyribonucleosides.
DNA was extracted from cells and subjected to pulsed field gel electrophoresis to determine the incidence of DNA strand breaks.

human fibroblasts [2] = test: UV-induced DNA single strand breaks (nucleoid position, alkaline sucrose gradient) with oxybenzone; format: cell-based
Experimental: (§1) Confluent human fibroblasts in T25 flasks were washed 3 times with HBSS (Hank's Balanced Salt Solution) and incubated with vehicle or with various concentrations of oxybenzone (OB) for 2 hours. Media was aspirated and cells were covered with a 1 mm layer of HBSS and irradiated from above with UV-B (50 J/m^2). The medium was aspirated and cells were incubated for three hours with 2 mM hydroxyurea. Medium was again aspirated, and cells were trypsinized with 0.25% trypsin/EDTA. Cells were centrifuged at 4° C., resuspended in 50 microliters of HBSS and incubated at room temperature with 200 microliters of 1N NaOH for 15 minutes. DNA damage (single strand breaks) was assessed by alkaline sucrose gradient centrifugation. “Nucleoid position” in the sucrose gradient is proportional to the number of DNA single strand breaks.

human fibroblasts [3] = test: Photodynamic enhancement of DNA damage by UV plus oxybenzone, attenuation by deoxyribonucleosides (nucleoid position); format: cell-based; conditions: UV + 2 μM OB, no dNsides
Experimental: as §1
Confluent human fibroblasts were exposed to 2 micromolar oxybenzone (OB), as in Example 3, prior to exposure to UV-B radiation (50 J/m^2). Different flasks of cells also were exposed to increasing concentrations of deoxyribonucleosides. Cells were processed for determination of nucleoid position in a sucrose density gradient, a measure of DNA single strand breaks.

Structure (SMILES): Nc1ccn([C@H]2C[C@H](O)[C@@H](CO)O2)c(=O)n1 [deoxycytidine, Deoxycytidine]
- DNA Strand Breaks (human fibroblasts [1]): .12 Breaks/47 MDa
- Papillomas/mouse at the end of 8 weeks (v-Ha-ras TG.AC mice): 0.25 Papillomas/mouse

Structure (SMILES): Nc1ncnc2c1ncn2[C@H]1C[C@H](O)[C@@H](CO)O1 [deoxyadenosine, Deoxyadenosine]
- DNA Strand Breaks (human fibroblasts [1]): .17 Breaks/47 MDa
- Papillomas/mouse at the end of 8 weeks (v-Ha-ras TG.AC mice): 0.67 Papillomas/mouse

Structure (SMILES): Cc1cn([C@H]2C[C@H](O)[C@@H](CO)O2)c(=O)[nH]c1=O [thymidine, Thymidine]
- DNA Strand Breaks (human fibroblasts [1]): .13 Breaks/47 MDa
- Papillomas/mouse at the end of 8 weeks (v-Ha-ras TG.AC mice): 1.6 Papillomas/mouse

Structure (SMILES): [N]=O [NO, Nitric oxide]
- DNA Strand Breaks (Human melanocytes; NO + UV 50 J/m^2): 0.21 breaks/105 MDa
- DNA Strand Breaks (Human melanocytes; NO + UV 300 J/m^2): 0.51 breaks/105 MDa
- DNA Strand Breaks (Human melanocytes; NO alone (160 μM DETA NONOate)): 0.13 breaks/105 MDa

Structure (SMILES): COc1ccc(C(=O)c2ccccc2)c(O)c1 [OB, oxybenzone (benzophenone-3)]
- Nucleoid Position (human fibroblasts [2]; UV 50 J/m^2 + 2 μM OB, 2 hours preincubation): 32 mm
- Nucleoid Position (human fibroblasts [2]; UV 50 J/m^2 + 20 μM OB): 4 mm
- Nucleoid Position (human fibroblasts [2]; UV 50 J/m^2 + 200 μM OB): 3 mm
- Nucleoid position relative to non-irradiated cells (human fibroblasts [2]; UV 50 J/m^2 + 2 micromolar OB): 10 fold
- Nucleoid Position (human fibroblasts [3]): 56 mm

Structure (SMILES): Nc1nc2c(ncn2[C@H]2C[C@H](O)[C@@H](CO)O2)c(=O)[nH]1 [deoxyguanosine, Deoxyguanosine]
- DNA Strand Breaks (human fibroblasts [1]): .17 Breaks/47 MDa
- Papillomas/mouse at the end of 8 weeks (v-Ha-ras TG.AC mice): 1.0 Papillomas/mouse
